For data set [1], the system named is Plasmodium falciparum. As to the kind of experiment: Antimalarial activity against Plasmodium falciparum W2 assessed as parasite growth inhibition. Type of data set: functional, organism-based.
Data set [2] is described as follows: Inhibition of Plasmodium falciparum SR21.
Data set [3] deals with Plasmodium falciparum. Description: Antimalarial activity against Plasmodium falciparum 3D7 assessed as inhibition of parasitemia incubated for 72 hrs by fluorescence based assay. It counts as functional, organism-based. The following applies: 3D7, 72 h.
Data set [4] concerns Plasmodium falciparum. As to the kind of experiment: Antimalarial activity against Plasmodium falciparum 3D7 assessed as inhibition of parasite proliferation. It counts as functional, organism-based.
The subject of data set [5] is Plasmodium falciparum. As to the kind of experiment: Antimalarial activity against CQ-resistant Plasmodium falciparum RKL9 infected in O+ human RBCs assessed as parasite growth inhibition by SYBR Green I staining based assay. Type of data set: functional, organism-based. The following applies: RKL9, Erythrocyte.
In data set [6] the test system is Plasmodium falciparum. As to the kind of experiment: Antimalarial activity against CQ-sensitive Plasmodium falciparum 3D7 infected in O+ human RBCs assessed as parasite growth inhibition by SYBR Green I staining based assay. Type of data set: functional, organism-based. The following applies: 3D7, Erythrocyte.
Data set [7] relates to Plasmodium falciparum. As to the kind of experiment: Antiplasmodial activity against Plasmodium falciparum K1 at asexual stage assessed as parasite growth inhibition. It counts as functional, organism-based.
Data set [8] relates to Plasmodium falciparum. Description: Antiplasmodial activity against CQ-sensitive Plasmodium falciparum NF54 at asexual stage assessed as parasite growth inhibition. Type of data set: functional, organism-based.
For data set [9], the system named is Plasmodium falciparum. Description: Antimalarial activity against CQ-sensitive Plasmodium falciparum 3D7 at trophozoite stage infected in O+ human erythrocytes assessed as parasite growth inhibition in presence of 297 uM thiamine by SYBR staining based analysis. The settings on record: 3D7, Erythrocyte. Type of data set: functional, organism-based.
Data set [10] has as its system Plasmodium knowlesi. Description: Antimalarial activity against Plasmodium knowlesi A1H1. It counts as functional, organism-based.
Data set [11] has as its system Plasmodium falciparum. As to the kind of experiment: Antimalarial activity against Plasmodium falciparum 3D7 infected in erythrocytes assessed as parasite growth inhibition incubated for 42 hrs by [3H]-hypoxanthine incorporation assay. Type of data set: functional, organism-based. The settings on record: 3D7, Erythrocyte.
For data set [12], the system named is Plasmodium falciparum. Description: Antimalarial activity against CQ-resistant Plasmodium falciparum K1 infected in human O+ erythrocytes assessed as parasite growth inhibition incubated for 48 hrs by SYBR Green I staining based analysis. Type of data set: functional, organism-based. The settings on record: K1, Erythrocyte.
In data set [13] the test system is Plasmodium falciparum. Description: Antimalarial activity against CQ-sensitive Plasmodium falciparum 3D7 infected in human O+ erythrocytes assessed as parasite growth inhibition incubated for 48 hrs by SYBR Green I staining based analysis. The following applies: 3D7, Erythrocyte. Type of data set: functional, organism-based.
The test system of data set [14] is Plasmodium falciparum. Description: Antiplasmodial activity against Plasmodium falciparum 3D7 at asexual erythrocytic stage infected in human erythrocytes assessed as parasite growth inhibition incubated for 42 hrs by [3H]-hypoxanthine incorporation assay. Type of data set: functional, organism-based. The following applies: 3D7, Erythrocyte.
The nature of data set [15]: Cytotoxicity against African green monkey Vero cells after 72 hrs by MTT assay. It counts as toxicity, cell-based. The settings on record: chlorocebus sabaeus. (Tetrazolium dyes change colour on reduction, which living cells bring about.)
For data set [16], the system named is Plasmodium falciparum. As to the kind of experiment: Antimalarial activity against Plasmodium falciparum 3D7 at asexual stage infected in erythrocytes assessed as parasite growth inhibition incubated for 72 hrs by MSF assay. The settings on record: 3D7, Erythrocyte. Type of data set: functional, organism-based.
Data set [17] deals with Plasmodium falciparum. As to the kind of experiment: Antimalarial activity against CQ-resistant Plasmodium falciparum W2 assessed as parasite growth inhibition by LDH assay. It counts as functional, organism-based.
Data set [18] relates to Plasmodium falciparum. Description: Antimalarial activity against CQ-sensitive Plasmodium falciparum D6 assessed as parasite growth inhibition by LDH assay. It counts as functional, organism-based.
Data set [19] deals with Plasmodium falciparum. As to the kind of experiment: Antimalarial activity against Plasmodium falciparum K1 assessed as parasite growth inhibition. Type of data set: functional, organism-based.
The subject of data set [20] is Plasmodium falciparum. As to the kind of experiment: Antimalarial activity against Plasmodium falciparum 3D7 assessed as parasite growth inhibition. Type of data set: functional, organism-based.
Data set [21] in a line: Cytotoxicity against African green monkey Vero cells assessed as cell growth inhibition incubated for 24 hrs by fluorescence based assay. It counts as toxicity. The settings on record: African green monkey (Chlorocebus sabaeus).
Data set [22] concerns Plasmodium falciparum. As to the kind of experiment: Antiplasmodial activity against CQ-susceptible Plasmodium falciparum 3D7 assessed as parasite growth inhibition incubated for 72 hrs by SYBR Green I staining based analysis. It counts as functional, organism-based. The settings on record: 3D7, 72 h.
The test system of data set [23] is Plasmodium falciparum. As to the kind of experiment: Antiplasmodial activity against CQ-resistant Plasmodium falciparum W2 assessed as parasite growth inhibition incubated for 72 hrs by SYBR Green I staining based analysis. The settings on record: W2, 72 h. It counts as functional, organism-based.

Broadly, the IC50 is the concentration that gives 50% inhibition. By EC50 is commonly meant the midpoint of the concentration-response curve. What is called CC50 is the concentration giving 50% cytotoxicity.

Converted amounts (≈) assume the structure as drawn.

On to `C=C[C@H]1CN2CC[C@H]1C[C@H]2[C@H](c1ccnc2ccccc12)n1cc(CO)nn1`, for which, in [1], the IC50 turned out to be 6.82 µM.
Turning to `CCCCCCCCCC(=O)OCc1cn(-c2ccc(Cl)cc2)nn1`, the IC50 in [2] amounted to 1550 nM; in data set [3], 2.8 µM.
`CCCCCc1cn(CCNC(=O)[C@H](O)C(C)(C)CO)nn1`: in [4], the IC50 was found to be 8.5 µM.
On to `Cc1ccccc1C(=O)/C=C/c1cn(Cc2cn(-c3ccnc4cc(Cl)ccc34)nn2)c2ccccc12`, for which the results for the IC50 in data set [5] and in data set [6] were 2.72 µM and 1810 nM, respectively.
For `COC(=O)C1=C(Cn2cc(CNc3ccnc4cc(Cl)ccc34)nn2)N(C)C(=O)NC1c1ccc(F)cc1` (stereo not drawn), the IC50 in data set [7] was 498 nM; in data set [8] it was 138 nM.
For the compound `Cc1ncc(Cn2cc(CCOC(=O)c3ccccc3)nn2)c(N)n1`, the IC50 in data set [9] is more than 200 µM.
Regarding `O=C1CC(c2n[nH]c(=S)n2-c2ccccc2)CN1Cc1ccccc1` (stereo not drawn), the EC50 in data set [10] stood at 28.9 µM.
In the case of `COc1ccc2cc3[n+](cc2c1OCc1cn(-c2ccc(S(=O)(=O)N4CCN(c5ccccn5)CC4)cc2)nn1)CCc1cc2c(cc1-3)OCO2.[Cl-]`, in data set [11], the IC50 is 1 µg/mL.
Regarding `Clc1ccc(-n2cc(-c3cncc4ccccc34)nn2)cc1`, the IC50 in data set [12] came out at 4.55 µM; in [13], 36.9 µM.
On to `COc1ccc2cc3[n+](cc2c1OCc1cn(-c2ccc(S(=O)(=O)Nc4ccc(Cl)cc4)cc2)nn1)CCc1cc2c(cc1-3)OCO2.[Cl-]`, for which the IC50 in data set [11] came to 0.1 µg/mL.
Consider `COC(=O)c1ccccc1-c1ccc(Cn2cc(-c3cncc4ccccc34)nn2)cc1`, for which the IC50 in data set [12] amounted to 52 µM; in data set [13], 35.8 µM.
As to `NS(=O)(=O)c1ccc(-n2cc(COc3ccccc3)nn2)cc1`, in data set [14], the IC50 was 15 µg/mL (≈ 45.4 µM).
As for `C=C[C@H]1CN2CC[C@H]1C[C@H]2[C@H](c1ccnc2ccccc12)n1cc(C(C)(C)O)nn1`, the IC50 in data set [1] was determined as 2.59 µM.
Regarding `COC(=O)C1=C(Cn2cc(CNc3ccnc4cc(Cl)ccc34)nn2)NC(=O)NC1c1ccc(F)cc1` (stereo not drawn), the values for the IC50 in data set [7] and in data set [8] were 551 nM and 217 nM, respectively.
Compound `O=C(Cn1cc(COc2ccc(Br)cc2)nn1)NCCCNc1ccnc2cc(Cl)ccc12` showed a CC50 at 72 h in [15] of 27.1 µM.
Take `COc1ccccc1C(=O)/C=C/c1cn(Cc2cn(-c3ccnc4cc(Cl)ccc34)nn2)c2ccccc12`: the IC50 in data set [5] came to 3.55 µM; in data set [6], 2440 nM.
Take `Cc1cc(C)nc(NS(=O)(=O)c2ccc(-n3cc(COc4ccccc4)nn3)cc2)n1`: the IC50 in data set [14] was more than 50 µg/mL.
As to `C=C[C@H]1CN2CC[C@H]1C[C@H]2[C@H](c1ccnc2ccccc12)n1cc(-c2ccccc2)nn1`, the IC50 in data set [1] turned out to be 4.65 µM.
In data set [15], `O=C(Cn1cc(COc2ccc(Br)cc2)nn1)NCCNc1ccnc2cc(Cl)ccc12` had a CC50 at 72 h of 28.9 µM. The IC50 in data set [16] turned out to be 40 nM.
For the compound `C=C[C@H]1CN2CC[C@H]1C[C@H]2[C@H](c1ccnc2ccccc12)n1cc(C(C)(C)N)nn1`, the IC50 in data set [1] turned out to be 4.62 µM.
Regarding `CC(C)(C)c1ccc(Cn2cc(-c3cccc4ccccc34)nn2)cc1`, the IC50 in [12] amounted to 42.2 µM; in data set [13], 36.9 µM.
Consider `Cc1cccc(Cn2nnc3c2C(=O)c2nnn(Cc4cccc(C)c4)c2C3=O)c1`, for which the figures for the IC50 in [17] and in data set [18] were 6.61 µM and 8.37 µM, respectively.
For the compound `COc1ccc2cc3[n+](cc2c1OCc1cn(-c2ccc(S(=O)(=O)N4CCOCC4)cc2)nn1)CCc1cc2c(cc1-3)OCO2.[Cl-]`, in data set [11], the IC50 was 0.5 µg/mL.
As for `COc1cc(/C=C/C(=O)c2cc3ccccc3oc2=O)ccc1OCc1cn(-c2ccnc3cc(Cl)ccc23)nn1`, the IC50 in [19] and in data set [20] was more than 5 µM each time.
`OB1OCc2cc(OCc3cn(CCNc4ccnc5cc(Cl)ccc45)nn3)ccc21`: the IC50 at 24 h in data set [21] is more than 100 µM. Further, the IC50 in data set [22] was found to be 4.15 µM; in data set [23], 3.78 µM.
In the case of `O/N=C/c1cn(-c2ccc(Cl)cc2)nn1`, the IC50 in [2] was 890 nM; in data set [3] it was 6.67 µM.
On to `Clc1cc(Cl)cc(-n2cc(/C=N/Nc3ccc(Br)cc3)nn2)c1`, for which the values for the IC50 in data set [2] and in data set [3] were 12400 nM and 29.3 µM, respectively.
For `Cc1ccc(OCc2cn(-c3ccc(S(N)(=O)=O)cc3)nn2)cc1`, the IC50 in data set [14] is more than 50 µg/mL.

The record behind these values is ChEMBL document CHEMBL5512597, “Triazole hybrid compounds: A new frontier in malaria treatment” (Eur J Med Chem, 2023).
